Laboratory results as given in paper PMC5216056 (Nature Communications, 2017).
Values joined by “and” are separate entries in the source; they are usually repeats but may differ in a detail not shown here. Equal entries are not always repeated. Where two headings read alike, the source gives them in different places.

Columns and labels:
mCB1R = molecular target: T1, mCB1R (Mus musculus, UniProt P47746); experiment: biochemical; details: for pEC50 ± SEM cAMP mCB1R: mouse brain
T1 construct: from tissue; host or cells: brain of male C57BL/6J mice
T1 sequence (P47746 whole entry): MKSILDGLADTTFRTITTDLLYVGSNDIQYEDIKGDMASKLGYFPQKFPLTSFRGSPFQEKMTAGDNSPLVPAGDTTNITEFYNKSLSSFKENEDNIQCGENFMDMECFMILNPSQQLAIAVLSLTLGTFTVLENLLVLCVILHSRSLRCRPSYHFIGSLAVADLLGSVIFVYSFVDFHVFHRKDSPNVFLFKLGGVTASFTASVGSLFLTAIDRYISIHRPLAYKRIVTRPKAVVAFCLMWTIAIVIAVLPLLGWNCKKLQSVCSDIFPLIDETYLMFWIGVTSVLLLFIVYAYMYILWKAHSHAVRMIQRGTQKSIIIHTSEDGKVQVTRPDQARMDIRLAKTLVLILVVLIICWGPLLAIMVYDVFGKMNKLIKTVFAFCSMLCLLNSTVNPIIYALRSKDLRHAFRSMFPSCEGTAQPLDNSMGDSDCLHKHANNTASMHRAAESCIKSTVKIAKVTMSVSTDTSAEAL

MAGL = molecular target: T2, MAGL (Homo sapiens, UniProt Q99685); experiment: Biochemical MAGL activity assay; details: 10 µM
T2 construct: expressed in transfected cells; host or cells: HEK293T (transient), membrane preparation
T2 sequence (Q99685 1-303): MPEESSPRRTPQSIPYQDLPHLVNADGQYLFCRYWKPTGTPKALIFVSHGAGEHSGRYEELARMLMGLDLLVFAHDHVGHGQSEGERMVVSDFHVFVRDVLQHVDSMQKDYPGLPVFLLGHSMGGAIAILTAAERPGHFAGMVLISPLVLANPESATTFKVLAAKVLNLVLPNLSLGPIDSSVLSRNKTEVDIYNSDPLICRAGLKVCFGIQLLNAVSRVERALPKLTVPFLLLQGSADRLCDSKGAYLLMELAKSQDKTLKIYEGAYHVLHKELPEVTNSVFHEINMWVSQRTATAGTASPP
Experimental: Cell culture and membrane preparation were performed as previously described. HEK293T cells (source: Dutch Cancer Institute) were grown in DMEM with stable glutamine and phenolred (PAA), 10% New Born Calf serum, penicillin and streptomycin. Cells were passaged every 2–3 days by resuspending in medium and seeding them to appropriate confluence. Membranes were prepared from transiently transfected HEK293T cells. One day prior to transfection 10^7 cells were seeded in a 15 cm petri dish. Cells were transfected by the addition of a 3:1 mixture of polyethyleneimine (60 μg) and plasmid DNA (20 μg) in 2 ml serum-free medium. The medium was refreshed after 24 h, and after 72 h the cells were harvested by suspending them in 20 ml medium. The suspension was centrifuged for 10 min at 1000, rpm, and the supernatant was removed. The cell pellet was stored at −80 °C until use. Cell pellets were thawed on ice and suspended in lysis buffer A (20 mM HEPES, 2 mM DTT, 0.25 M sucrose, 1 mM MgCl2, […] Benzonase). The suspension was homogenized by polytrone (3 × 7 s) and incubated for 30 min on ice. The suspension was subjected to ultracentrifugation (100,000 × g, 30 min, 4 °C, Beckman Coulter, Type Ti70 rotor) to yield the cytosolic fraction in the supernatant and the membrane fraction as a pellet. The pellet was resuspended in lysis buffer B (20 mM HEPES, 2 mM DTT). The protein concentration was determined with Quick Start Bradford assay (Biorad). The protein fractions were diluted to a total protein concentration of 1 mg ml^−1 and stored in small aliquots at −80 °C until use.
Percentage of inhibition of reference ligands was determined in comparison with an untreated control. […] Fluorescence was measured in 5 min intervals for 60 min.

hGPR55 = molecular target: T3, hGPR55 (Homo sapiens, UniProt Q9Y2T6); experiment: cell-based; details: β-arrestin recruitment
T3 construct: host or cells: CHO-K1 (PathHunter hGPR55_bgal)
T3 sequence (Q9Y2T6 whole entry): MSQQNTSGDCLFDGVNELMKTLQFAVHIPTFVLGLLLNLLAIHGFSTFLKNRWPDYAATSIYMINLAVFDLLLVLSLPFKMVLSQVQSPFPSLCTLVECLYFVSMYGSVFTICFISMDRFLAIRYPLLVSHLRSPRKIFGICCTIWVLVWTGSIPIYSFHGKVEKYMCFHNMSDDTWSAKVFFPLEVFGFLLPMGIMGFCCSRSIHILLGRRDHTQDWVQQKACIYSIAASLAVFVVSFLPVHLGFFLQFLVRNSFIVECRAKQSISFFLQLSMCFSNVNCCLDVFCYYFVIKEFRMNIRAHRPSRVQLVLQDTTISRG

[1] = tested on: AEA cellular uptake in HMC-1 cells; experiment: cells; type: cell-based, human; details: read-out: AEA reuptake IC50 (95% CI) HMC-1 cells; FAAH-deficient cells
Rat recombinant TRPA1 = molecular target: T4, Rat recombinant TRPA1 (Rattus norvegicus, UniProt Q6RI86); experiment: cell-based; type: cell-based; details: for EC50: read-out: TRPA1 Potency EC50; for IC50: vs AITC 100μM, 5 min pre-incubation, read-out: TRPA1 IC50 for antagonism or desensitization
T4 construct: expressed in transfected cells
T4 sequence (Q6RI86 whole entry): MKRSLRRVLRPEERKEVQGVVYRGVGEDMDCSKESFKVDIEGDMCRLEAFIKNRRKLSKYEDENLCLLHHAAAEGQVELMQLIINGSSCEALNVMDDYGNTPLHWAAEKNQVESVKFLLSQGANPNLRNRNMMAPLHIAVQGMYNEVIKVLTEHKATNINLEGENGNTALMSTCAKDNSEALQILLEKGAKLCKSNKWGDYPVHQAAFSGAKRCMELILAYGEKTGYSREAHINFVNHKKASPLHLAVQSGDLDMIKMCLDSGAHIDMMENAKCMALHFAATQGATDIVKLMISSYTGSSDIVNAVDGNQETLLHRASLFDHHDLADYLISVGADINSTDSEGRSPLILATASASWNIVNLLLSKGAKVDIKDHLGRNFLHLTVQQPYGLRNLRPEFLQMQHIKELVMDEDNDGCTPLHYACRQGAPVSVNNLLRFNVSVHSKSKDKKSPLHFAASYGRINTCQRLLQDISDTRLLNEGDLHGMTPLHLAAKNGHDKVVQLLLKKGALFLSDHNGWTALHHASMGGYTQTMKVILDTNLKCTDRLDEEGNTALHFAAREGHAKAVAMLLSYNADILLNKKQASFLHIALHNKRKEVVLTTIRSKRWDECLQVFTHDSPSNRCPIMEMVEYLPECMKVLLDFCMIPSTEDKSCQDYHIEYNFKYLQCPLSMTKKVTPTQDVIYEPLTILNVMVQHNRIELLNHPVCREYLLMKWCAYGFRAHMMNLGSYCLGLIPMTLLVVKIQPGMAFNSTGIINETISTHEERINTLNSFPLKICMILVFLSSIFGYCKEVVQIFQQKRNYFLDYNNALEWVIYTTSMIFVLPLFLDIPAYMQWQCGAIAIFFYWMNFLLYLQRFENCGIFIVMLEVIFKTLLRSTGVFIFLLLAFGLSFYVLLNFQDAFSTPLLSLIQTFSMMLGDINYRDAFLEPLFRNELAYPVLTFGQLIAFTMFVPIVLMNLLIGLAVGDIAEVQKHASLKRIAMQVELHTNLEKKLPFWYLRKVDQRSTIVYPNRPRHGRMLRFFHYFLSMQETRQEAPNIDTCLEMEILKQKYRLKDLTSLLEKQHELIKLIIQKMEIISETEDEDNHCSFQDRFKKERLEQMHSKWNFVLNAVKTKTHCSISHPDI

alpha 2A (h) = molecular target: T5, alpha 2A (h) (Homo sapiens, UniProt P08913); experiment: CEREP panel; type: binding; details: 10 µM
T5 construct: CEREP
T5 sequence (P08913 1-465): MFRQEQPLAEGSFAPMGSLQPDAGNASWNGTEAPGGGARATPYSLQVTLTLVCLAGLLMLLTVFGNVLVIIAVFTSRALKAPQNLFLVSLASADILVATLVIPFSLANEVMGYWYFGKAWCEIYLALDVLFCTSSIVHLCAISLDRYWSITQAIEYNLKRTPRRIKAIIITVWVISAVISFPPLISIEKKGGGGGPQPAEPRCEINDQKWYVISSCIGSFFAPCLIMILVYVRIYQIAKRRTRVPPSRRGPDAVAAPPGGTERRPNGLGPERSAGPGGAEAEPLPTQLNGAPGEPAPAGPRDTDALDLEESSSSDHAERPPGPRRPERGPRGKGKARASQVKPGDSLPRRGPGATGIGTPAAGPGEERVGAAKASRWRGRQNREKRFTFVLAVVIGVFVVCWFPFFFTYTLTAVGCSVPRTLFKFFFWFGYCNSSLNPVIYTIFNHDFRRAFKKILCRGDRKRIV

AR (h) = experiment: CEREP panel; type: binding, human; details: 10 µM
[2] = tested on: Ca2+ channel (L, diltiazem site); experiment: CEREP panel; type: binding; details: 10 µM
PPARα (h) = molecular target: T6, PPARα (h) (Homo sapiens, UniProt Q07869); experiment: CEREP panel; type: binding; details: 10 µM
T6 construct: CEREP (contract assay)
T6 sequence (Q07869 1-468): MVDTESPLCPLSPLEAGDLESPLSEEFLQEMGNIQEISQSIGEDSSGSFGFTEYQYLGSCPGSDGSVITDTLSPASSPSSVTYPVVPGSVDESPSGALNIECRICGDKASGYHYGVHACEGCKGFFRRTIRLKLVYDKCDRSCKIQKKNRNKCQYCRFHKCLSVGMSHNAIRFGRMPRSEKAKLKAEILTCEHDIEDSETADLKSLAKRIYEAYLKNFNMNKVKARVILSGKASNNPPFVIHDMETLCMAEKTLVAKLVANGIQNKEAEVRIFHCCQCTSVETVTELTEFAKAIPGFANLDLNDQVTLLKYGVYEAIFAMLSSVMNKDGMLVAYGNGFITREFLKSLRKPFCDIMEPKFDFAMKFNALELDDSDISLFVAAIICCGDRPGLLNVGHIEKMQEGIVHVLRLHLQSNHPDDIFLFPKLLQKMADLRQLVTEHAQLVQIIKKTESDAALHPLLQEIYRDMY

mouse P-gp = mouse P-gp (Mus musculus, UniProt P21447); details: efflux ratio
mouse P-gp, sequence (P21447 whole entry): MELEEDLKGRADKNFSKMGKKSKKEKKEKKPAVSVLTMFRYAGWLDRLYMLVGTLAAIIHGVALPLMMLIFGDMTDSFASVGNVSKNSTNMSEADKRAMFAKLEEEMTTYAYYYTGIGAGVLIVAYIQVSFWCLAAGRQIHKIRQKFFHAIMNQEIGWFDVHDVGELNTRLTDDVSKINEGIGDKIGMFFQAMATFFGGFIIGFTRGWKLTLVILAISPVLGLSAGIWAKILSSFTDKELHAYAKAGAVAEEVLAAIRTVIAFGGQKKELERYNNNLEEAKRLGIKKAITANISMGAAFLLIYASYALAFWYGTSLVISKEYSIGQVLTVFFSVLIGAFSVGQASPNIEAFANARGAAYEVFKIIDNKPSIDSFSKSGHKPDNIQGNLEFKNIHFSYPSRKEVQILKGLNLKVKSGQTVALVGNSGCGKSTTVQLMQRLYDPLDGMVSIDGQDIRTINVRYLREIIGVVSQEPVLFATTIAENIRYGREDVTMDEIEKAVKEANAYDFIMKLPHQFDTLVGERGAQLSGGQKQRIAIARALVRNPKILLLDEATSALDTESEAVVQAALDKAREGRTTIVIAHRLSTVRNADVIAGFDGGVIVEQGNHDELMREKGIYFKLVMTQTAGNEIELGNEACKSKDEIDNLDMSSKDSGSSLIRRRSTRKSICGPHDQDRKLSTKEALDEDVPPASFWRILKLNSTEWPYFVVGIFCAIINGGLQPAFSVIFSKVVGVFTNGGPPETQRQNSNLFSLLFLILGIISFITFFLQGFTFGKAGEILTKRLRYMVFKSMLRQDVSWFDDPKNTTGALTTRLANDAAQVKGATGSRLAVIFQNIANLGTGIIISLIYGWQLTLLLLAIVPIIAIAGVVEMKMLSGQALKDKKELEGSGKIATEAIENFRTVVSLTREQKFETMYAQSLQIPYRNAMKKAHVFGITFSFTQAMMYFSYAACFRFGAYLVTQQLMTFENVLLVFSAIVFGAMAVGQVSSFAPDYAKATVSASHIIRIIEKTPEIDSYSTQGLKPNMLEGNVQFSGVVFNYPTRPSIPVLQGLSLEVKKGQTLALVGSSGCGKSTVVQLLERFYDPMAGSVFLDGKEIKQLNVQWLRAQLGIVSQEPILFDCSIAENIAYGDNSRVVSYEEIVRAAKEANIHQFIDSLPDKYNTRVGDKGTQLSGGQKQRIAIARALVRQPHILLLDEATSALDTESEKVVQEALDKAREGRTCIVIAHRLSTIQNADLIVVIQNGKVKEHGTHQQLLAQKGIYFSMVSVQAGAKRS

mCB2R = mCB2R (Mus musculus, UniProt P47936); experiment: biochemical; type: binding; set-up: from tissue; host or cells: spleen of male C57BL/6J mice; details: for CB2R Selectivity (binding, mouse): 10^(pKi CB2R-pKi CB1R); for pKi ± SEM mCB2R: mouse spleen membranes
mCB2R, sequence (P47936 whole entry): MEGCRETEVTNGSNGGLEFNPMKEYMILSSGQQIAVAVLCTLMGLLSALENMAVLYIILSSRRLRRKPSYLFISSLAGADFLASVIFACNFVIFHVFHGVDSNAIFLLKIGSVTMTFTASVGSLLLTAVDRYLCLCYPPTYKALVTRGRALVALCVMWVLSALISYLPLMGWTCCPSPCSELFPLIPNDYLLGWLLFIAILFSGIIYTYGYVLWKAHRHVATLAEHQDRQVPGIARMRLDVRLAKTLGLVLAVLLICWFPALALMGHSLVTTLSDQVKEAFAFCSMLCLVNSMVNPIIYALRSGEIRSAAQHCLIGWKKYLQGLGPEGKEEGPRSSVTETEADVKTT

hCB2R = hCB2R (Homo sapiens, UniProt P34972); experiment: cell-based; type: cell-based; set-up: expressed in transfected cells; host or cells: Flp-In-293 (Invitrogen #R750-07), pcDNA5/FRT
hCB2R, sequence (P34972 whole entry): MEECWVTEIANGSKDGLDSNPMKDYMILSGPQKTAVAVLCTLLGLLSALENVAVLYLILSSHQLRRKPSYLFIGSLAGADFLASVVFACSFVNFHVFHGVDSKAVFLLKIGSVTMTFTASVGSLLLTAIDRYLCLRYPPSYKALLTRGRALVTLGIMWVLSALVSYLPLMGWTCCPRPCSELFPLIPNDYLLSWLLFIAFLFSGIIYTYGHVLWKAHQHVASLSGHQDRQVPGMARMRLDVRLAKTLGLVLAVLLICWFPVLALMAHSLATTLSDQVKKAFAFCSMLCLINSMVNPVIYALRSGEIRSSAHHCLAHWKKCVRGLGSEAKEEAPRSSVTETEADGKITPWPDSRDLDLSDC

Cc1ccc2c(c1)Cc1c(C(=O)NN3CCCCC3)nn(-c3ccc(Cl)cc3Cl)c1-2 [Gp-1a]
pEC50 ± SEM cAMP mCB1R (mCB1R): 5.86 ± 0.42
Emax cAMP mCB1R (mCB1R; normalized to 10 µM CP55940): -28%
MAGL % inhibition at 10 µM ± SD (MAGL): -1 ± 15%
GPR55 pEC50 (± SEM) (hGPR55): < 5
IC50 [1]: > 5 µM
TRPA1 Efficacy (%AITC 100μM) (Rat recombinant TRPA1): 83.6% and 84 ± 1%
EC50 (Rat recombinant TRPA1): 2.1 µM
IC50 (Rat recombinant TRPA1): 10.4 µM
% inhibition alpha 2A (h) (alpha 2A (h)): 30%
% inhibition AR (h) (AR (h)): -8%
% inhibition Ca2+ channel (L, diltiazem site) [2]: 34%
% inhibition PPARα (h) (PPARα (h)): -9%
P-gp (ER) mouse (mouse P-gp): 1.1
CB2R Selectivity (binding, mouse) (mCB2R): 20 fold
pKi ± SEM mCB2R (mCB2R): 7.68 ± 0.23
CB2R Selectivity GIRK (hCB2R; 10^(pEC50 CB2R-pEC50 CB1R)): 5 fold
pEC50 ± SEM GIRK hCB2R (hCB2R; antagonists in presence of CP55940): 5.99 ± 0.08

CCCn1c(C)c(C(=O)c2cccc3ccccc23)c2ccccc21 [JWH015]
pEC50 ± SEM cAMP mCB1R (mCB1R): < 5
Emax cAMP mCB1R (mCB1R; normalized to 10 µM CP55940): 29%
MAGL % inhibition at 10 µM ± SD (MAGL): 0 ± 17%
GPR55 pEC50 (± SEM) (hGPR55): < 5
% inhibition alpha 2A (h) (alpha 2A (h)): 1%
% inhibition AR (h) (AR (h)): 0%
% inhibition Ca2+ channel (L, diltiazem site) [2]: 33%
% inhibition PPARα (h) (PPARα (h)): -16%
P-gp (ER) mouse (mouse P-gp): 1.5
pKi ± SEM mCB2R (mCB2R): 6.63 ± 0.21

COc1ccc(C(=O)c2c(C)n(CCN3CCOCC3)c3cc(I)ccc23)cc1 [AM630]
Emax cAMP mCB1R (mCB1R): 13
pEC50 ± SEM cAMP mCB1R (mCB1R): < 5
MAGL % inhibition at 10 µM ± SD (MAGL): 4 ± 16%
GPR55 pEC50 (± SEM) (hGPR55): < 5
IC50 [1]: > 10 µM
TRPA1 Efficacy (%AITC 100μM) (Rat recombinant TRPA1): 118.0% and 118±2%
EC50 (Rat recombinant TRPA1): 1.9 µM
IC50 (Rat recombinant TRPA1): 3.7 ± 0.5 µM
% inhibition alpha 2A (h) (alpha 2A (h)): -5%
% inhibition AR (h) (AR (h)): -7%
% inhibition Ca2+ channel (L, diltiazem site) [2]: -11%
% inhibition PPARα (h) (PPARα (h)): -17%
P-gp (ER) mouse (mouse P-gp): 1.3
pKi ± SEM mCB2R (mCB2R): 7.66 ± 0.23
pEC50 ± SEM GIRK hCB2R (hCB2R): 5.82 ± 0.08

CN1CCCC[C@H]1Cn1cc(C(=O)c2cc([N+](=O)[O-])ccc2I)c2ccccc21 [(S)-AM1241]
Emax cAMP mCB1R (mCB1R): 16
pEC50 ± SEM cAMP mCB1R (mCB1R): 5.43 ± 0.42
MAGL % inhibition at 10 µM ± SD (MAGL): -4 ± 18%
IC50 [1]: > 5 µM
TRPA1 Efficacy (%AITC 100μM) (Rat recombinant TRPA1): 47.5%
EC50 (Rat recombinant TRPA1): 5.8 µM
IC50 (Rat recombinant TRPA1): 40.9 µM
% inhibition alpha 2A (h) (alpha 2A (h)): 10%
% inhibition AR (h) (AR (h)): 1%
% inhibition Ca2+ channel (L, diltiazem site) [2]: 90%
% inhibition PPARα (h) (PPARα (h)): -18%
P-gp (ER) mouse (mouse P-gp): 1.4
CB2R Selectivity (binding, mouse) (mCB2R): 2 fold
pKi ± SEM mCB2R (mCB2R): 6.74 ± 0.2
pEC50 ± SEM GIRK hCB2R (hCB2R): 5.6 ± 0.14
Emax ± SEM GIRK hCB2R (hCB2R; normalized to CP55940): 68 ± 13%
